Data on one molecule can be found in patent US12606571B2, “Macrocyclic compounds and uses thereof” (TURNING POINT THERAPEUTICS, INC., priority 2017, dated 2026).

Where two headings read alike, the source gives them in different places.

One assay concerns MKN-45 cells. The assay is described as follows: Scratch wound healing assay, MKN-45. Format: cell-based. The note with it: 36-48 hours treatment. On the procedure: (§1) MKN-45 or HCC827 cells were seeded in 24-well plate. After 12-24 hours, confluent cell monolayers were gently scraped with a sterile pipette tip to form a scratch. The plates were washed with fresh medium, and the cells were incubated with medium alone or medium containing various concentration of compounds. After 36-48 hours, the plates were examined and recorded by an EVOS FL microscopy (Life Technology) to monitor rescaling of the cell monolayer.

The test system of the next assay is M-NFS-60 cells. The assay is described as follows: M-NFS-60 cell proliferation at varied CSF-1. The settings on record: Mus musculus. Format: cell-based. How it is done: Two thousand cells per well were seeded in 384 well white plate for 24 hrs, and then treated with compounds for 72 hours (37° C., 5% CO2). Cell proliferation was measured using CellTiter-Glo luciferase-based ATP detection assay (Promega) following the manufacturer's protocol. IC50 determinations were performed using GraphPad Prism software (GraphPad, Inc., San Diego, CA).
The anti-cell proliferation activities against MET and CSF1R driven cell lines were conducted with MKN-45, SNU-5, Ba/F3 TEL-CSF1R cells, and M-NFS-60 respectively.

A further assay concerns MKN-45 tumors. Description: MKN-45 gastric adenocarcinoma xenograft model. Format: in vivo, mouse. On the procedure: MKN-45 and Ba/F3 ETV6-CSF1R cells were cultured using standard techniques in RPMI-1640 medium (Corning, Inc) with 10% fetal bovine serum (Thermo Fisher Scientific, Inc) at 37° C. in a humidified atmosphere with 5% CO2. For implantation, cells were harvested and pelleted by centrifugation at 250 g for 2 minutes. Cells were washed once and resuspended in serum-free medium supplemented with 50% matrigel (v/v).
Female athymic nude mice (5-8 weeks of age) were obtained from Charles River Laboratory and were housed in Innovive IVC disposable cages on HEPA filtered ventilated racks with ad libitum access to rodent chow and water. Five million cells in 100 μL serum-free medium supplemented with 50% matrigel (Corning, Inc) were implanted subcutaneously in the right flank region of the mouse. Tumor size and body weight were measured on designated days. Tumor size was measured with an electronic caliper and tumor volume was calculated as the product of length*width^2*0.5.
The Met gene amplification in MKN-45 cells underlies the molecular mechanism for tumor growth. Athymic nude mice bearing MKN-45 tumors (at the average tumor size of 210 mm^3) were dosed with Compound 5 orally BID for twelve days (FIG. 7). The control group of mice were given vehicle only. Tumor volume (TMV) was measured by caliper on the indicated days and is shown at mean±sem in FIG. 7. […] Tumor growth inhibition (TGI) was calculated as 100%*{1−[(TMVTreated Last Day of Treatment−TMVTreated First Day of Treatment)/(TMVControl on Last Day of Treatment−TMVControl on First Day of Treatment)]} when TMVTreated Last Day of Treatment≥TMVTreated First Day of Treatment. In the case of TMVTreated Last Day of Treatment<TMVTreated First Day of Treatment., tumor regression (REG) was calculated as 100%*(1−TMVTreated Last Day of Treatment/TMVTreated First Day of Treatment). […] Tumor size was reduced in 5 out 10 mice treated with Compound 5 at 10 mg/kg, BID and in 9 out of 10 mice treated with Compound 5 at 30 mg/kg.

A further assay relates to HCC827 cells. Description: Scratch wound healing assay, HCC827. Type of assay: cell-based, human. The settings on record: 36-48 hours treatment. On the procedure: as §1

In the case of `CCN1Cc2c(ccc(F)c2C#N)O[C@@H](C)CNC(=O)c2c(N)nn3ccc1nc23` [Compound 5, (7S)-3-amino-14-ethyl-11-fluoro-7-methyl-4-oxo-4,5,6,7,13,14-hexahydro-1,15-ethenopyrazolo[4,3-f][1,4,8,10]benzoxatriazacyclotridecine-12-carbonitrile], in the assay on MKN-45 cells, the “cell migration of MKN-45 cells, wound healing” value was “inhibited”. Further, the IC50 was 0.3 nM in the assay with M-NFS-60 cells (read-out: M-NFS-60 IC50, CSF-1 0 ng/mL); 3 nM with M-NFS-60 cells (read-out: M-NFS-60 IC50, CSF-1 0.3 ng/mL); 11.6 nM in the assay with M-NFS-60 cells (read-out: M-NFS-60 IC50, CSF-1 1 ng/mL); 78.2 nM with M-NFS-60 cells (read-out: M-NFS-60 IC50, CSF-1 3 ng/mL); 84.1 nM in the assay on M-NFS-60 cells (read-out: M-NFS-60 IC50, CSF-1 10 ng/mL); 181 nM in the assay with M-NFS-60 cells (read-out: M-NFS-60 IC50, CSF-1 30 ng/mL). Besides, in the assay on M-NFS-60 cells (read-out: M-NFS-60 IC50, CSF-1 100 ng/mL), the IC50 was found to be 174 nM. The “tumor growth inhibition (TGI)” value with MKN-45 tumors (3 mg/kg, BID, oral, twelve days) stood at 47%. Besides, the “tumor regression (REG)” value amounted to 6% in the assay with MKN-45 tumors (10 mg/kg, BID, oral, twelve days) and 44% in the assay on MKN-45 tumors (30 mg/kg, BID, oral, twelve days). Further, the “mice with reduced tumor size” value in the assay on MKN-45 tumors (30 mg/kg) is 9 out of 10. The “mean tumor volume (TMV) compared to control group” value with MKN-45 tumors (treated groups 3, 10, 30 mg/kg BID, p<0.05) is reported as “significantly lower”. For the same molecule, the “cell migration of HCC827 cells, wound healing” value in the assay on HCC827 cells was “inhibited”.
